Measurements from the NIST ThermoML archive (doi:10.1021/je3002255).
± gives the expanded uncertainty stated by the source.

Conditions: Liquid, Ebulliometric method (Recirculating still)

SMILES: CCCOCCO [2-propoxyethanol]
- vapor or sublimation pressure (406.13 K): 60 ± 1.4 kPa
- vapor or sublimation pressure (406.15 K): 60 ± 1.4 kPa
- vapor or sublimation pressure (415.28 K): 80 ± 2 kPa
- vapor or sublimation pressure (415.3 K): 80 ± 2 kPa
- vapor or sublimation pressure (422.73 K): 100 ± 2.5 kPa
- vapor or sublimation pressure (422.75 K): 100 ± 2.5 kPa

SMILES: CCC(C)O (configuration not stated) [butan-2-ol]
- vapor or sublimation pressure (359.26 K): 60 ± 1.4 kPa
- vapor or sublimation pressure (366.45 K): 80 ± 1.8 kPa
- vapor or sublimation pressure (372.21 K): 100 ± 2.4 kPa

SMILES: CC(C)O [propan-2-ol]
- vapor or sublimation pressure (342.87 K): 60 ± 1.4 kPa
- vapor or sublimation pressure (349.6 K): 80 ± 1.8 kPa
- vapor or sublimation pressure (355.06 K): 100 ± 2.4 kPa
